Laboratory results published in patent US11814367B2, “Inhibitors of glycogen synthase 1 (GYS1) and methods of use thereof” (Maze Therapeutics, Inc., priority 2021, dated 2023).

Tests used:
[1] = molecular target: hGYS1 enzyme (recombinant hGYS1/GN1 protein) (Homo sapiens (Human), UniProt P13807); experiment: GYS1 coupled enzyme assay (PK/LDH); format: biochemical; settings: hGYS1/GN1 50 nM, UDP-Glucose 0.8 mM, G6P 1 mM; geometric mean of at least 2 runs
[2] = molecular target: hGYS2 enzyme (recombinant hGYS2/GN1 protein) (Homo sapiens (Human), UniProt P54840); experiment: GYS2 coupled enzyme assay (PK/LDH); format: biochemical; settings: geometric mean of at least 2 assay runs on separate days, read-out: Avg_IC50
How it was run: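 Continuous PK/LDH-coupled readout of NADH loss at 340 nm over 10 min, with 200 nM hGYS2/GN1 and 2 mM each of UDP-glucose, glucose-6-phosphate and PEP, in 50 mM Tris pH 7.5 with 0.2% glycogen and 2.5% DMSO. Slopes were normalized to controls and IC50s fit to a Hill curve from duplicates.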

Sequence of hGYS2 enzyme (recombinant hGYS2/GN1 protein) (P54840 whole entry): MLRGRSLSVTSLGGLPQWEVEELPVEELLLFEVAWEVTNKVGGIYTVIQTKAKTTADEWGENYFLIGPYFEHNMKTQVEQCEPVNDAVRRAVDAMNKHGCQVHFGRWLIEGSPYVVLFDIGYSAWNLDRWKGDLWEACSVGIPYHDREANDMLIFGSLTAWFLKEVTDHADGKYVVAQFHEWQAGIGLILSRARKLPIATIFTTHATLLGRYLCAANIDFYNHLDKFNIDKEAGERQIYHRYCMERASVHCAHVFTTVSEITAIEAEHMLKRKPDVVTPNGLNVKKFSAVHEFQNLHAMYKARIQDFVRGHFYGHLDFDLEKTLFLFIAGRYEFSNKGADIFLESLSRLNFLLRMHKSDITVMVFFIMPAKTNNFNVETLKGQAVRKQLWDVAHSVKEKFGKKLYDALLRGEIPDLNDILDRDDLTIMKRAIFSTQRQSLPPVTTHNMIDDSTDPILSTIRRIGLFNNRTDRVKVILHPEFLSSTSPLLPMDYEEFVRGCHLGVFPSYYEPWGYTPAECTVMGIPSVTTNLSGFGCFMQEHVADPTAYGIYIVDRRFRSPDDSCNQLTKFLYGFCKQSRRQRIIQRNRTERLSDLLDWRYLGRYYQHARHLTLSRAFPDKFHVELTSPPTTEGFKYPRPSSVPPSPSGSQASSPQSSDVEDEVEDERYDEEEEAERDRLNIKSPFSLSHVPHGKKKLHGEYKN
Sequence of hGYS2 enzyme (recombinant hGYS2/GN1 protein) (P46976 whole entry partner): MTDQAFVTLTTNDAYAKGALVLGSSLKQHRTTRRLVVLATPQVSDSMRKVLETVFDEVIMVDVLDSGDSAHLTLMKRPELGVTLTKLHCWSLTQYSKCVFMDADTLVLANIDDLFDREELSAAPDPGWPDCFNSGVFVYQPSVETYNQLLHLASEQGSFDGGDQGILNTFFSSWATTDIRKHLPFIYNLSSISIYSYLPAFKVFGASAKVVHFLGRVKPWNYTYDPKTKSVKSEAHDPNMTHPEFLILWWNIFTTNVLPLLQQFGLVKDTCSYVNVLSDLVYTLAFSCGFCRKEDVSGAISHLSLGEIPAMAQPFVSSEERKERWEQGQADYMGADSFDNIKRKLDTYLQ
Sequence of hGYS1 enzyme (recombinant hGYS1/GN1 protein) (P13807 whole entry): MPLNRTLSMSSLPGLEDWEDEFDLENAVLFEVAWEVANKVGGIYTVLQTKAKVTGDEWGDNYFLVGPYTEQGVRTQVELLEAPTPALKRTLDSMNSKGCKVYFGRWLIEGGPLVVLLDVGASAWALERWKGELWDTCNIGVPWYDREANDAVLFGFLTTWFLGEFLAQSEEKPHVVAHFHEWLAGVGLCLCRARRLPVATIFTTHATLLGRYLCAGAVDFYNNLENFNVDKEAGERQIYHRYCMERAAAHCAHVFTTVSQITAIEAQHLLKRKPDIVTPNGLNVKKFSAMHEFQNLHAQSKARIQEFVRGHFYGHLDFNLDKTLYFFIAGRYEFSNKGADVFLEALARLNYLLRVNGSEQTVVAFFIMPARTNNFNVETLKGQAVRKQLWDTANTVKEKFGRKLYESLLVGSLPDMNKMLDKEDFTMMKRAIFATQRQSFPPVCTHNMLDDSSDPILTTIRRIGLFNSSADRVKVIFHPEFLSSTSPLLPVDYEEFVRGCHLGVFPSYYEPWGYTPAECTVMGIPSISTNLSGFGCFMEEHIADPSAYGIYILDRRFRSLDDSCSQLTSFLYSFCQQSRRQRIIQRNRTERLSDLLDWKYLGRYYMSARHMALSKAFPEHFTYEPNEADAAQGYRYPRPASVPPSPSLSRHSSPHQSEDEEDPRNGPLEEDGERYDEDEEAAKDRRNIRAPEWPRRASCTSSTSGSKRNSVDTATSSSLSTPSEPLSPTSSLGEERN
Sequence of hGYS1 enzyme (recombinant hGYS1/GN1 protein) (P46976 whole entry partner): as the sequence (P46976 whole entry partner) above

Row | SMILES | IC50 [1] [nM] | IC50 [2] [nM]
1 | CC(C)c1ccc([C@@H](NC(=O)[C@@H]2C[C@@H](F)CN2C(=O)CNC(=O)N(C)C)c2ccccc2)cc1 [Compound 67, (2S,4R)-1-{2-[(dimethylcarbamoyl)amino]acetyl}-4-fluoro-N-[(S)-phenyl[4-(propan-2-yl)phenyl]methyl]pyrrolidine-2-carboxamide] | 10 | > 100000
2 | CC(C)c1ccc([C@@H](NC(=O)[C@@H]2C[C@@H](F)CN2C(=O)Cn2nnc3ccccc32)c2ccccc2)cc1 [Compound 68, (2S,4R)-1-[2-(1H-1,2,3-benzotriazol-1-yl)acetyl]-4-fluoro-N-[(S)-phenyl[4-(propan-2-yl)phenyl]methyl]pyrrolidine-2-carboxamide] | 34 | > 100000
3 | Cc1nc(CC(=O)N2C[C@H](F)C[C@H]2C(=O)N[C@@H](c2ccccc2)c2ccc(C(C)C)cc2)c(C)s1 [Compound 69, (2S,4R)-1-[2-(2,5-dimethyl-1,3-thiazol-4-yl)acetyl]-4-fluoro-N-[(S)-phenyl[4-(propan-2-yl)phenyl]methyl]pyrrolidine-2-carboxamide] | 36 | > 100000
4 | Cc1noc(C)c1CC(=O)N1C[C@H](F)C[C@H]1C(=O)N[C@@H](c1ccccc1)c1ccc(C(C)C)cc1 [Compound 70, (2S,4R)-1-[2-(3,5-dimethyl-1,2-oxazol-4-yl)acetyl]-4-fluoro-N-[(S)-phenyl[4-(propan-2-yl)phenyl]methyl]pyrrolidine-2-carboxamide] | 50 | > 100000
5 | CC(C)c1ccc([C@@H](NC(=O)[C@@H]2C[C@@H](F)CN2C(=O)C(C)n2ccccc2=O)c2ccccc2)cc1 (stereo partly drawn) [Compound 73, (2S,4R)-4-fluoro-1-[2-(2-oxo-1,2-dihydropyridin-1-yl)propanoyl]-N-[(S)-phenyl[4-(propan-2-yl)phenyl]methyl]pyrrolidine-2-carboxamide] | 105 | > 100000
6 | CC(C)c1ccc([C@@H](NC(=O)[C@@H]2C[C@@H](F)CN2C(=O)CCCn2ccnc2)c2ccccc2)cc1 [Compound 75, (2S,4R)-4-fluoro-1-[4-(1H-imidazol-1-yl)butanoyl]-N-[(S)-phenyl[4-(propan-2-yl)phenyl]methyl]pyrrolidine-2-carboxamide] | 224 | > 100000
7 | CC(C)c1ccc([C@@H](NC(=O)[C@@H]2C[C@@H](F)CN2C(=O)CCc2cnn(C)c2)c2ccccc2)cc1 [Compound 76, (2S,4R)-4-fluoro-1-[3-(1-methyl-1H-pyrazol-4-yl)propanoyl]-N-[(S)-phenyl[4-(propan-2-yl)phenyl]methyl]pyrrolidine-2-carboxamide] | 106 | > 100000
8 | Cc1n[nH]c(C)c1CC(=O)N1C[C@H](F)C[C@H]1C(=O)N[C@@H](c1ccccc1)c1ccc(C(C)C)cc1 [Compound 84, (2S,4R)-1-[2-(3,5-dimethyl-1H-pyrazol-4-yl)acetyl]-4-fluoro-N-[(S)-phenyl[4-(propan-2-yl)phenyl]methyl]pyrrolidine-2-carboxamide] | 10 | > 100000
9 | CC(C)c1ccc([C@@H](NC(=O)[C@@H]2C[C@@H](F)CN2C(=O)CN2CCCCC2=O)c2ccccc2)cc1 [Compound 85, (2S,4R)-4-fluoro-1-[2-(2-oxopiperidin-1-yl)acetyl]-N-[(S)-phenyl[4-(propan-2-yl)phenyl]methyl]pyrrolidine-2-carboxamide] | 154 | > 100000
10 | CC(C)c1ccc([C@@H](NC(=O)[C@@H]2C[C@@H](F)CN2C(=O)Cc2noc(C(C)C)n2)c2ccccc2)cc1 [Compound 87, (2S,4R)-4-fluoro-N-[(S)-phenyl[4-(propan-2-yl)phenyl]methyl]-1-{2-[5-(propan-2-yl)-1,2,4-oxadiazol-3-yl]acetyl}pyrrolidine-2-carboxamide] | 28 | > 100000
11 | CC(C)c1ccc([C@@H](NC(=O)[C@@H]2C[C@@H](F)CN2C(=O)C2CCNC(=O)C2)c2ccccc2)cc1 (stereo partly drawn) [Compound 93, (2S,4R)-4-fluoro-1-(2-oxopiperidin-4-carbonyl)-N-[(S)-phenyl[4-(propan-2-yl)phenyl]methyl]pyrrolidine-2-carboxamide] | 108 | > 100000
12 | CC(C)c1ccc([C@@H](NC(=O)[C@@H]2C[C@@H](F)CN2C(=O)CCCc2cccnc2)c2ccccc2)cc1 [Compound 94, (2S,4R)-4-fluoro-N-[(S)-phenyl[4-(propan-2-yl)phenyl]methyl]-1-[4-(pyridin-3-yl)butanoyl]pyrrolidine-2-carboxamide] | 188 | > 100000

Second part, the compound after the results:

Row | IC50 [1] [nM] | IC50 [2] [nM] | SMILES
13 | 76 | > 100000 | CC(C)c1ccc([C@@H](NC(=O)[C@@H]2C[C@@H](F)CN2C(=O)CCc2ccccn2)c2ccccc2)cc1 [Compound 65, (2S,4R)-4-fluoro-N-[(S)-phenyl[4-(propan-2-yl)phenyl]methyl]-1-[3-(pyridin-2-yl)propanoyl]pyrrolidine-2-carboxamide]
14 | 25 | > 100000 | COc1cccc(CC(=O)N2C[C@H](F)C[C@H]2C(=O)N[C@@H](c2ccccc2)c2ccc(C(C)C)cc2)n1 [Compound 81, (2S,4R)-4-fluoro-1-[2-(6-methoxypyridin-2-yl)acetyl]-N-[(S)-phenyl[4-(propan-2-yl)phenyl]methyl]pyrrolidine-2-carboxamide]
15 | 15 | > 100000 | Cc1cc(CC(=O)N2C[C@H](F)C[C@H]2C(=O)N[C@@H](c2ccccc2)c2ccc(C(C)C)cc2)nn1C [Compound 83, (2S,4R)-1-[2-(1,5-dimethyl-1H-pyrazol-3-yl)acetyl]-4-fluoro-N-[(S)-phenyl[4-(propan-2-yl)phenyl]methyl]pyrrolidine-2-carboxamide]
16 | 12 | > 100000 | CC(C)c1ccc([C@@H](NC(=O)[C@@H]2C[C@@H](F)CN2C(=O)Cc2c[nH]c3ccccc23)c2ccccc2)cc1 [Compound 86, (2S,4R)-4-fluoro-1-[2-(1H-indol-3-yl)acetyl]-N-[(S)-phenyl[4-(propan-2-yl)phenyl]methyl]pyrrolidine-2-carboxamide]
17 | 49 | > 100000 | COc1ccc(CC(=O)N2C[C@H](F)C[C@H]2C(=O)N[C@@H](c2ccccc2)c2ccc(C(C)C)cc2)cc1 [Compound 88, (2S,4R)-4-fluoro-1-[2-(4-methoxyphenyl)acetyl]-N-[(S)-phenyl[4-(propan-2-yl)phenyl]methyl]pyrrolidine-2-carboxamide]
18 | 60 | > 100000 | COc1ccc(CC(=O)N2C[C@H](F)C[C@H]2C(=O)N[C@@H](c2ccccc2)c2ccc(C(C)C)cc2)cc1F [Compound 89, (2S,4R)-4-fluoro-1-[2-(3-fluoro-4-methoxyphenyl)acetyl]-N-[(S)-phenyl[4-(propan-2-yl)phenyl]methyl]pyrrolidine-2-carboxamide]
19 | 32 | > 100000 | COc1ccc(F)cc1CC(=O)N1C[C@H](F)C[C@H]1C(=O)N[C@@H](c1ccccc1)c1ccc(C(C)C)cc1 [Compound 90, (2S,4R)-4-fluoro-1-[2-(5-fluoro-2-methoxyphenyl)acetyl]-N-[(S)-phenyl[4-(propan-2-yl)phenyl]methyl]pyrrolidine-2-carboxamide]
20 | 47 | > 100000 | Cc1ccccc1OCC(=O)N1C[C@H](F)C[C@H]1C(=O)N[C@@H](c1ccccc1)c1ccc(C(C)C)cc1 [Compound 91, (2S,4R)-4-fluoro-1-[2-(2-methylphenoxy)acetyl]-N-[(S)-phenyl[4-(propan-2-yl)phenyl]methyl]pyrrolidine-2-carboxamide]
